# Values quoted from earlier work, collected in US6043366A (priority 1997, dated 2000).
# Key:
# [1] = test system: LC 132 receptor; details: cells in culture
# [2] = test system: mice
substance,measurement,setting,value
"OFQ: seventeen amino-acid-long peptide (F-G-G-F-T-G-A-R-K-S-A-R-K-L-A-N-Q), isolated from rat brain, natural ligand to the G-protein coupled receptor OFQ-R (FGGFTGARKSARKLANQ; Nociceptin; UniProt Q13519 130-146, looked up)",adenylate cyclase in CHO(LC 132+) cells,[1],inhibits adenylate cyclase
same,hyperalgesia,[2]; administered intra-cerebroventricularly to mice,induces hyperalgesia
same,locomotive activity,[2]; injected intra-cerebroventricularly in mice,slowed down locomotive activity
